One data set concerns P. aeruginosa biofilm. The data set is described as follows: Pseudomonas aeruginosa biofilm assay kit, biofilm MBEC reading of recovery plate (Example 8). In kind it is cell-based. To be noted: challenge 24 hours at 35° C.; recovery 20 to 24 hours; breakpoint concentrations.
Data set [1] deals with Staphylococcus aureus (Staph) planktonic bacteria. The data set is described as follows: MBEC assay, planktonic Staph isolates (Example 5). In kind it is cell-based. To be noted: number of resistant isolates; 12 isolates from device associated infections; exposed 24 hours.
In data set [2] the test system is planktonic Staphylococcus aureus. Nature of the data set: Staphylococcus test plate, planktonic forms (Example 9). It is filed as cell-based. To be noted: breakpoint concentrations, number in the label is the concentration tested.
Data set [3] relates to Staphylococcus aureus biofilm. Nature of the data set: Staphylococcus test plate, biofilm forms (Example 9). It is filed as cell-based. To be noted: breakpoint concentrations, number in the label is the concentration tested.
For data set [4], the system named is Staphylococcus aureus (Staph) biofilm. The data set is described as follows: MBEC assay, Staph biofilms (Example 5). In kind it is cell-based. To be noted: number of resistant isolates; 12 isolates from device associated infections; exposed 24 hours.
The subject of another data set is planktonic P. aeruginosa. The data set is described as follows: Pseudomonas aeruginosa biofilm assay kit, planktonic MIC reading of challenge plate (Example 8). To be noted: challenge 24 hours at 35° C.; breakpoint concentrations. It is filed as cell-based.
In data set [5] the test system is Pseudomonas aeruginosa (Ps) planktonic bacteria. Nature of the data set: MBEC assay, planktonic Ps isolates (Example 5). To be noted: number of resistant isolates; 12 isolates from Cystic Fibrosis patients; exposed 24 hours. It is filed as cell-based.
Data set [6] relates to Pseudomonas aeruginosa (Ps) biofilm. Nature of the data set: MBEC assay, Ps biofilms (Example 5). In kind it is cell-based. To be noted: number of resistant isolates; 12 isolates from Cystic Fibrosis patients; exposed 24 hours.
A further data set deals with Candida biofilms. The data set is described as follows: Minimum biofilm eradication concentration assay, Candida spp. biofilms. In kind it is cell-based. As to the method:
(§1) Three clinical isolates of Candida were used in this study, including one albicans and two non-albicans species. C. albicans ATCC 14053 was obtained from the University Of Calgary, Department Of Biological Sciences. C. tropicalis 99916 and C. glabrata 14326 were obtained from the dialysate of patients undergoing continued ambulatory peritoneal dialysis (CAPD). Aspergillus fumigatus was also tested.
Biofilm formation and measurement of antimicrobial sensitivity of Candida and Aspergillus biofilms were performed using an assembly of the present invention. The device features a microtiter plate lid with 96 pegs or projections distributed on the lid. Each peg provided the surface for microorganism to adhere, colonize and form a uniform biofilm. The pegs fit precisely into the wells of a standard 96-well microtiter plate. The lid was used in conjunction with a base having special troughs for growing, washing, and incubating fungi. Colonies of Candida sp. were picked from 24 hour cultures on Sabouraud Dextrose agar (SDA) (BBL Microbiological Systems, Cockeysville, Md.) and placed into Mueller-Hinton Broth (MHB) (Difco Laboratories, Detroit Mich.) such that the suspension matched a McFarland standard of 1.0. This suspension was then diluted 1:30 in MHB, and 25 ml were pipetted into the trough chamber of the base. The closed assembly (lid with pegs positioned on the base) was placed on a Hoeffer Red Rocker (VWR, Scientific) set to rock the plates 3.5 cycles per minute in a 37° C. incubator. C. albicans and C. tropicalis were incubated aerobically, while C. glabrata was incubated in 10% CO2. It was determined in preliminary experiments that C. glabrata required 10% CO2 atmosphere for biofilms to form.
(§2) Biofilm susceptibility testing uses the pegged lid of the assembly, now containing biofilms formed after rocking in the tray for 24 hour. Each peg on the lid was gently washed once in 200 μl of phosphate buffered saline solution (PBSS) in a 96-well microtiter plate (Falcon). The pegged lid was then transferred to another 96 well microtiter plate containing 2 fold dilutions antifungal agent in 200 μl of RPMI 1640 (Sigma, St. Louis, Mo.) or RPMI 1640 containing 1% DMSO (see test drug section). After the pegs were exposed to the drugs for 24 hours, the pegged lid was removed and gently rinsed twice in saline. The pegged lid was then placed on a 96 well plate containing RPMI 1640 recovery medium. The pegs were sonicated for 5 minutes (Candida spp.) or 7 minutes (Aspergillus) in an ultrasonicator to dislodge adherent cells into the recovery medium. Aliquots of 20 μl of the recovery medium were spot plated on SDA (Candida spp) or Rose Bengal Agar (A. fumigatus) to obtain the MBEC. The assembly was also used to determine the minimum inhibitory concentration (MIC) and minimum fungicidal concentration (MFC). The turbidity of the wells that contained the antibiotic and planktonic cells which were shed from the biofilm was measured at 650 nm to obtain the MIC. A 20 μl sample from each well was also spot plated onto Sabouraud Dextrose agar (Candida spp) or Rose Bengal Agar (A. fumigatus) to obtain the MFC.
Drugs tested. Itraconazole, Fluconazole, and Ketoconazole were obtained from Janssen Pharmaceuticals in Brussels, Belgium. Nystatin 5-Fluorocytosine, Griseofulvin, Amphotericin B and Polymyxin B were obtained from Sigma Chemical Co, St. Louis, Mo. […]

In data set [7] the test system is planktonic cultures of C. albicans. Nature of the data set: Planktonic antifungal sensitivity (MIC, MFC) of C. albicans. It is filed as cell-based, Candida albicans. As to the method:
as §1
as §2, with “The assembly was also used to determine the minimum inhibitory concentration (MIC) and minimum fungicidal concentration (MFC).” left out, “A 20 μl sample from each well was also spot plated onto Sabouraud Dextrose agar (Candida spp) or Rose Bengal Agar (A. fumigatus) to obtain the MFC.” left out
(§3) Minimum Inhibitory Concentrations (MIC) and Minimum Fungicidal Concentrations (MFC) were determined according to the guidelines of the National Committee for Clinical laboratory Standards (NCCLS). […]
(§4) The test wells were then incubated at 37° C. for 24 hours with the antifungal drugs. MICs for Candida were obtained after incubation by reading the turbidity at 650 nm on a microtiter plate reader (Softmax, VWR). […] MFCs were determined for Aspergillus by plating 100 μl from each well onto Rose Bengal Agar, followed by spreading with a sterile glass spreader. […]

For a further data set, the system named is planktonic Candida cells. Nature of the data set: Planktonic antifungal sensitivity of Candida spp. It is filed as cell-based. To be noted: all species tested. How it is done: as §1, §2
Minimum Inhibitory Concentrations (MIC) and Minimum Fungicidal Concentrations (MFC) were determined according to the guidelines of the National Committee for Clinical laboratory Standards (NCCLS). Briefly, Candida sp. were maintained on polystyrene spheres at −70° C. until plating. These organisms were streaked onto Sabouraud Dextrose agar (Microbiologie) plates 24 hours before test initiation. The 24 hour colonies were picked from the agar plates and placed in Muellar-Hinton Broth (MHB, Microbiologie) such that the turbidity matched a McFarland standard of 0.5. This was then diluted 1:10 in MHB to obtain a suspension of approximately 1×10^5 to 5×10^5 CFU/ml. A 5 μl volume of this suspension was added to wells containing 200 μl of antifungal agent serially diluted in RPMI 1640 media (Sigma) in a 96 well microtiter plate (Nunclon). A. fumigatus was maintained as a spore suspension at 4° C. until testing. The spore suspension (50 μl) was diluted into 250 ml of TSB, and 5 μl of this suspension was added to each test well containing dilution of antifungal agent as above.
The test wells were then incubated at 37° C. for 24 hours with the antifungal drugs. MICs for Candida were obtained after incubation by reading the turbidity at 650 nm on a microtiter plate reader (Softmax, VWR). A 20 μl aliquot of each well was also plated (SDA) and MFCs obtained from them after 24 hours incubation at 37° C. MFCs were determined for Aspergillus by plating 100 μl from each well onto Rose Bengal Agar, followed by spreading with a sterile glass spreader. The plated organisms were maintained at 25° C. for three days before colony enumeration.
Drugs tested. Itraconazole, Fluconazole, and Ketoconazole were obtained from Janssen Pharmaceuticals in Brussels, Belgium. Nystatin 5-Fluorocytosine, Griseofulvin, Amphotericin B and Polymyxin B were obtained from Sigma Chemical Co, St. Louis, Mo. 5-Fluorocytosine, polymyxin B sulphate and nystatin were dissolved in double-distilled water to a concentration of 10.24 mg/ml and diluted in the test wells through a range of 1024 μg/ml to 0.125 μg/ml in RPMI. […]

For data set [8] the following is noted: cited from earlier work.
Data set [9] concerns biofilm cells of C. albicans. The data set is described as follows: Minimum biofilm eradication concentration assay, C. albicans biofilm. In kind it is cell-based, Candida albicans. As to the method:
as §1
Biofilm formation and measurement of antimicrobial sensitivity of Candida and Aspergillus biofilms were performed using an assembly of the present invention. The device features a microtiter plate lid with 96 pegs or projections distributed on the lid. Each peg provided the surface for microorganism to adhere, colonize and form a uniform biofilm. The pegs fit precisely into the wells of a standard 96-well microtiter plate. The lid was used in conjunction with a base having special troughs for growing, washing, and incubating fungi. […] It was determined in preliminary experiments that C. glabrata required 10% CO2 atmosphere for biofilms to form.
Biofilm susceptibility testing uses the pegged lid of the assembly, now containing biofilms formed after rocking in the tray for 24 hour. […] The turbidity of the wells that contained the antibiotic and planktonic cells which were shed from the biofilm was measured at 650 nm to obtain the MIC. […]

The subject of data set [10] is invasive pulmonary, sinus and cerebral aspergillosis. To be noted: cited from earlier work.
The test system of another data set is C. tropicalis. Nature of the data set: Planktonic antifungal sensitivity (MIC) of C. tropicalis. It is filed as cell-based, Candida tropicalis. To be noted: C. tropicalis strain tested. How it is done: as §1
Biofilm susceptibility testing uses the pegged lid of the assembly, now containing biofilms formed after rocking in the tray for 24 hour. Each peg on the lid was gently washed once in 200 μl of phosphate buffered saline solution (PBSS) in a 96-well microtiter plate (Falcon). […] The turbidity of the wells that contained the antibiotic and planktonic cells which were shed from the biofilm was measured at 650 nm to obtain the MIC. […]
as §3, §4

Where [11] appears, read: planktonic cultures of C. albicans.

Read-outs that look alike come from different tables or passages of the source.

For the molecule gentamicin [GM], in the data set on P. aeruginosa biofilm, the “Number of P. aeruginosa isolates resistant to individual antibiotics and antibiotic combinations, Biofilm” value amounted to 12. Moreover, the “Staph resistance to individual antibiotics and antibiotic combinations, Planktonic” value (“Staph resistance … Planktonic” below) in [1] is 6. Besides, the entries for the “Number of Staphylococcus aureus isolates resistant to individual antibiotics and antibiotic combinations, Planktonic” value in data set [2] (listed as GM2) and in data set [2] (listed as GM4) were 4 and 3, respectively. The “Number of Staphylococcus aureus isolates resistant to individual antibiotics and antibiotic combinations, Biofilm” value in data set [3] (listed as GM2) is listed as 11; in [3] (listed as GM4) it was 10. The “Staph resistance to individual antibiotics and antibiotic combinations, Biofilm” value (shortened to “Staph resistance … Biofilm”) in [4] is 10. For the same molecule, in the data set with planktonic P. aeruginosa, the “Number of P. aeruginosa isolates resistant to individual antibiotics and antibiotic combinations, Planktonic” value is 8. Besides, the “Ps resistance to individual antibiotics and antibiotic combinations, Planktonic” value in data set [5] is recorded as 8. For the same molecule, the “Ps resistance to individual antibiotics and antibiotic combinations, Biofilm” value in data set [6] is listed as 12.

In the case of `C[C@@H]1[C@H](O)[C@@H](C)/C=C/C=C/C=C/C=C/C=C/C=C/C=C/[C@H](O[C@@H]2O[C@H](C)[C@@H](O)[C@H](N)[C@@H]2O)C[C@@H]2O[C@](O)(C[C@@H](O)C[C@@H](O)[C@H](O)CC[C@@H](O)C[C@@H](O)CC(=O)O[C@H]1C)C[C@H](O)[C@H]2C(=O)O` [amphotericin B, Amphotericin B], in the data set with Candida biofilms (Candida biofilms), the MBEC came to 16 µg/mL. In addition, the “effectiveness against Candida growing as a biofilm” value with Candida biofilms (biofilm (sessile) Candida) is listed as “most effective agents”. Besides, the “average MFC” value in data set [7] (setting [11]) was 0.02 mg/L. Further, the “average MIC” value in data set [7] (setting [11]) is 0.09 mg/L. In addition, the “effectiveness in killing planktonic Candida cells” value with planktonic Candida cells is reported as “effective”. In addition, in data set [8], the “peak permissible human serum concentrations” value is 2 µg/mL. Moreover, the “average concentration required to kill biofilm cells” value in [9] was 12 µg/mL. Further, the “cases that show any response” value in data set [10] (14 days of treatment) is reported as 54%. Moreover, the crude mortality rate in data set [10] (patients treated for invasive cerebral aspergillosis) was 99%; in data set [10] (patients treated for invasive pulmonary aspergillosis), 86%; in [10] (patients treated for invasive sinus aspergillosis) it was 66%.

For the molecule `CN[C@H](CC(C)C)C(=O)N[C@H]1C(=O)N[C@@H](CC(N)=O)C(=O)N[C@H]2C(=O)N[C@H]3C(=O)N[C@H](C(=O)N[C@H](C(=O)O)c4cc(O)cc(O)c4-c4cc3ccc4O)[C@H](O)c3ccc(c(Cl)c3)Oc3cc2cc(c3O[C@@H]2O[C@H](CO)[C@@H](O)[C@H](O)[C@H]2O[C@H]2C[C@](C)(N)[C@H](O)[C@H](C)O2)Oc2ccc(cc2Cl)[C@H]1O` [VAN, vancomycin], the “Staph resistance … Planktonic” value in [1] is given as 6. In addition, the figures for the “Number of Staphylococcus aureus isolates resistant to individual antibiotics and antibiotic combinations, Planktonic” value in data set [2] (listed as VAN2) and in [2] (listed as VAN4) were 5 and 1, respectively. Besides, the “Number of Staphylococcus aureus isolates resistant to individual antibiotics and antibiotic combinations, Biofilm” value in data set [3] was 12. Besides, the “Staph resistance … Biofilm” value in data set [4] is 12.

On to `Cc1onc(-c2ccccc2Cl)c1C(=O)N[C@@H]1C(=O)N2[C@@H]1SC(C)(C)[C@@H]2C(=O)O` [CLOX, cloxacillin], for which, in data set [1], the “Staph resistance … Planktonic” value amounted to 3. For the same molecule, the “Number of Staphylococcus aureus isolates resistant to individual antibiotics and antibiotic combinations, Planktonic” value in [2] was determined as 2. The “Number of Staphylococcus aureus isolates resistant to individual antibiotics and antibiotic combinations, Biofilm” value in data set [3] is listed as 12. The “Staph resistance … Biofilm” value in [4] is reported as 12.

As for `OC(Cn1cncn1)(Cn1cncn1)c1ccc(F)cc1F` [fluconazole, Fluconazole], the “classification by fluconazole MIC criterion (less than or equal to 8 μg/ml = susceptible)” value (in [7] (C. albicans strain tested); with C. tropicalis) was “susceptible” in each case. Besides, the “effectiveness in killing planktonic Candida cells” value in the data set with planktonic Candida cells is given as “effective”.

Source of the values: US20080318268A1, “Devices and Methods for the Selection of Agents with Efficacy Against Biofilm” (priority 2005, published 2008).
